Assay results reported in patent publication US20250255867A1 (Kadmon Corporation, LLC, priority 2022, published 2025).

SMILES: CC(C)NC(=O)COc1cccc(-c2nc(Nc3ccc4[nH]ncc4c3)c3ccccc3n2)c1 [Belumosudil, 2-{3-[4-(1H-indazol-5-ylamino)-2-quinazolinyl]phenoxy}-N-(propan-2-yl) acetamide]
- Weight decreased: Affected/At Risk (%) (Cohort 1 200 mg QD): (5.88%)
- Weight increased: # Events (Cohort 1 200 mg QD): 9
- Weight increased: Affected/At Risk (Cohort 1 200 mg QD): 3/17
- Weight increased: Affected/At Risk (%) (Cohort 1 200 mg QD): (17.65%)
- White blood cell count decreased: # Events (Cohort 1 200 mg QD): 1
- White blood cell count decreased: Affected/At Risk (Cohort 1 200 mg QD): 1/17
- White blood cell count decreased: Affected/At Risk (%) (Cohort 1 200 mg QD): (5.88%)
- ALT/AST increased all grade, No. (Cohort 1 200 mg QD n=17): 11
- ALT/AST increased grade ≥3, No. (Cohort 1 200 mg QD n=17): 2
- Anemia grade ≥3, No. (Cohort 1 200 mg QD n=17): 2
- Any AE, No. of patients (Cohort 1 200 mg QD n=17): 17
- Cough all grade, No. (Cohort 1 200 mg QD n=17): 1
- Death, No. (Cohort 1 200 mg QD n=17): 0
- Diarrhea all grade, No. (Cohort 1 200 mg QD n=17): 6
- Drug-related AE, No. (Cohort 1 200 mg QD n=17): 8
- Drug-related SAE, No. (Cohort 1 200 mg QD n=17): 0
- Dyspnea all grade, No. (Cohort 1 200 mg QD n=17): 3
- Dyspnea grade ≥3, No. (Cohort 1 200 mg QD n=17): 1
- Fatigue all grade, No. (Cohort 1 200 mg QD n=17): 6
- Grade ≥3 AE, No. (Cohort 1 200 mg QD n=17): 9
- Headache all grade, No. (Cohort 1 200 mg QD n=17): 4
- Hyperglycemia grade ≥3, No. (Cohort 1 200 mg QD n=17): 2
- Hypertension all grade, No. (Cohort 1 200 mg QD n=17): 5
- Hypoxia grade ≥3, No. (Cohort 1 200 mg QD n=17): 1
- Lung infection or pneumonia grade ≥3, No. (Cohort 1 200 mg QD n=17): 1
- Nausea all grade, No. (Cohort 1 200 mg QD n=17): 6
- Peripheral edema all grade, No. (Cohort 1 200 mg QD n=17): 3
- SAE, No. (Cohort 1 200 mg QD n=17): 5
- URI all grade, No. (Cohort 1 200 mg QD n=17): 9
- Patients with relative dose intensity >95% (Cohort 2): 63%
- Abdominal distension: # Events (Cohort 2 200 mg BID): 0
- Abdominal distension: Affected/At Risk (Cohort 2 200 mg BID): 0/16
- Abdominal distension: Affected/At Risk (%) (Cohort 2 200 mg BID): (0%)
- Abdominal pain upper: # Events (Cohort 2 200 mg BID): 1
- Abdominal pain upper: Affected/At Risk (Cohort 2 200 mg BID): 1/16
- Abdominal pain upper: Affected/At Risk (%) (Cohort 2 200 mg BID): (6.25%)
- Abdominal pain: # Events (Cohort 2 200 mg BID): 4
- Abdominal pain: Affected/At Risk (Cohort 2 200 mg BID): 2/16
- Abdominal pain: Affected/At Risk (%) (Cohort 2 200 mg BID): (12.5%)
- Actinic keratosis: # Events (Cohort 2 200 mg BID): 1
- Actinic keratosis: Affected/At Risk (Cohort 2 200 mg BID): 1/16
- Actinic keratosis: Affected/At Risk (%) (Cohort 2 200 mg BID): (6.25%)
- Acute kidney injury: # Events (Cohort 2 200 mg BID): 2
- Acute kidney injury: Affected/At Risk (Cohort 2 200 mg BID): 2/16
- Acute kidney injury: Affected/At Risk (%) (Cohort 2 200 mg BID): (12.5%)
- Acute respiratory distress syndrome: # Events (Cohort 2 200 mg BID): 0
- Acute respiratory distress syndrome: Affected/At Risk (Cohort 2 200 mg BID): 0/16
- Acute respiratory distress syndrome: Affected/At Risk (%) (Cohort 2 200 mg BID): (0%)
- Adrenal insufficiency: # Events (Cohort 2 200 mg BID): 0
- Adrenal insufficiency: Affected/At Risk (Cohort 2 200 mg BID): 0/16
- Adrenal insufficiency: Affected/At Risk (%) (Cohort 2 200 mg BID): (0%)
- Alanine aminotransferase increased: # Events (Cohort 2 200 mg BID): 4
- Alanine aminotransferase increased: Affected/At Risk (Cohort 2 200 mg BID): 3/16
- Alanine aminotransferase increased: Affected/At Risk (%) (Cohort 2 200 mg BID): (18.75%)
- Anaemia: # Events (Cohort 2 200 mg BID): 8
- Anaemia: Affected/At Risk (Cohort 2 200 mg BID): 4/16
- Anaemia: Affected/At Risk (%) (Cohort 2 200 mg BID): (25%)
- Anal incontinence: # Events (Cohort 2 200 mg BID): 0
- Anal incontinence: Affected/At Risk (Cohort 2 200 mg BID): 0/16
- Anal incontinence: Affected/At Risk (%) (Cohort 2 200 mg BID): (0%)
- Anxiety: # Events (Cohort 2 200 mg BID): 3
- Anxiety: Affected/At Risk (Cohort 2 200 mg BID): 2/16
- Anxiety: Affected/At Risk (%) (Cohort 2 200 mg BID): (12.5%)
- Arthralgia: # Events (Cohort 2 200 mg BID): 1
- Arthralgia: Affected/At Risk (Cohort 2 200 mg BID): 1/16
- Arthralgia: Affected/At Risk (%) (Cohort 2 200 mg BID): (6.25%)
- Aspartate aminotransferase increased: # Events (Cohort 2 200 mg BID): 2
- Aspartate aminotransferase increased: Affected/At Risk (Cohort 2 200 mg BID): 2/16
- Aspartate aminotransferase increased: Affected/At Risk (%) (Cohort 2 200 mg BID): (12.5%)
- Asthenia: # Events (Cohort 2 200 mg BID): 1
- Asthenia: Affected/At Risk (Cohort 2 200 mg BID): 1/16
- Asthenia: Affected/At Risk (%) (Cohort 2 200 mg BID): (6.25%)
- Atelectasis: # Events (Cohort 2 200 mg BID): 0
- Atelectasis: Affected/At Risk (Cohort 2 200 mg BID): 0/16
- Atelectasis: Affected/At Risk (%) (Cohort 2 200 mg BID): (0%)
- Back pain: # Events (Cohort 2 200 mg BID): 2
- Back pain: Affected/At Risk (Cohort 2 200 mg BID): 2/16
- Back pain: Affected/At Risk (%) (Cohort 2 200 mg BID): (12.5%)
- Balance disorder: # Events (Cohort 2 200 mg BID): 1
- Balance disorder: Affected/At Risk (Cohort 2 200 mg BID): 1/16
- Balance disorder: Affected/At Risk (%) (Cohort 2 200 mg BID): (6.25%)
- Basal cell carcinoma: # Events (Cohort 2 200 mg BID): 1
- Basal cell carcinoma: Affected/At Risk (Cohort 2 200 mg BID): 1/16
- Basal cell carcinoma: Affected/At Risk (%) (Cohort 2 200 mg BID): (6.25%)
- Benign prostatic hyperplasia: # Events (Cohort 2 200 mg BID): 0
- Benign prostatic hyperplasia: Affected/At Risk (Cohort 2 200 mg BID): 0/16
- Benign prostatic hyperplasia: Affected/At Risk (%) (Cohort 2 200 mg BID): (0%)
- Blepharitis: # Events (Cohort 2 200 mg BID): 0
- Blepharitis: Affected/At Risk (Cohort 2 200 mg BID): 0/16
- Blepharitis: Affected/At Risk (%) (Cohort 2 200 mg BID): (0%)
- Blister: # Events (Cohort 2 200 mg BID): 3
- Blister: Affected/At Risk (Cohort 2 200 mg BID): 2/16
- Blister: Affected/At Risk (%) (Cohort 2 200 mg BID): (12.5%)
- Blood alkaline phosphatase increased: # Events (Cohort 2 200 mg BID): 1
- Blood alkaline phosphatase increased: Affected/At Risk (Cohort 2 200 mg BID): 1/16
- Blood alkaline phosphatase increased: Affected/At Risk (%) (Cohort 2 200 mg BID): (6.25%)
- Blood chloride decreased: # Events (Cohort 2 200 mg BID): 1
- Blood chloride decreased: Affected/At Risk (Cohort 2 200 mg BID): 1/16
- Blood chloride decreased: Affected/At Risk (%) (Cohort 2 200 mg BID): (6.25%)
- Blood cholesterol increased: # Events (Cohort 2 200 mg BID): 0
- Blood cholesterol increased: Affected/At Risk (Cohort 2 200 mg BID): 0/16
- Blood cholesterol increased: Affected/At Risk (%) (Cohort 2 200 mg BID): (0%)
- Blood creatine increased: # Events (Cohort 2 200 mg BID): 1
- Blood creatine increased: Affected/At Risk (Cohort 2 200 mg BID): 1/16
- Blood creatine increased: Affected/At Risk (%) (Cohort 2 200 mg BID): (6.25%)
- Blood creatine phosphokinase increased: # Events (Cohort 2 200 mg BID): 0
- Blood creatine phosphokinase increased: Affected/At Risk (Cohort 2 200 mg BID): 0/16
- Blood creatine phosphokinase increased: Affected/At Risk (%) (Cohort 2 200 mg BID): (0%)
- Blood creatinine increased: # Events (Cohort 2 200 mg BID): 1
- Blood creatinine increased: Affected/At Risk (Cohort 2 200 mg BID): 1/16
- Blood creatinine increased: Affected/At Risk (%) (Cohort 2 200 mg BID): (6.25%)
- Blood loss anaemia: # Events (Cohort 2 200 mg BID): 0
- Blood loss anaemia: Affected/At Risk (Cohort 2 200 mg BID): 0/16
- Blood loss anaemia: Affected/At Risk (%) (Cohort 2 200 mg BID): (0%)
- Bronchial secretion retention: # Events (Cohort 2 200 mg BID): 1
- Bronchial secretion retention: Affected/At Risk (Cohort 2 200 mg BID): 1/16
- Bronchial secretion retention: Affected/At Risk (%) (Cohort 2 200 mg BID): (6.25%)
- Bronchitis: # Events (Cohort 2 200 mg BID): 0
- Bronchitis: Affected/At Risk (Cohort 2 200 mg BID): 0/16
- Bronchitis: Affected/At Risk (%) (Cohort 2 200 mg BID): (0%)
- Bronchoscopy: # Events (Cohort 2 200 mg BID): 0
- Bronchoscopy: Affected/At Risk (Cohort 2 200 mg BID): 0/16
- Bronchoscopy: Affected/At Risk (%) (Cohort 2 200 mg BID): (0%)
- Catheter site haemorrhage: # Events (Cohort 2 200 mg BID): 0
- Catheter site haemorrhage: Affected/At Risk (Cohort 2 200 mg BID): 0/16
- Catheter site haemorrhage: Affected/At Risk (%) (Cohort 2 200 mg BID): (0%)
- Chills: # Events (Cohort 2 200 mg BID): 1
- Chills: Affected/At Risk (Cohort 2 200 mg BID): 1/16
- Chills: Affected/At Risk (%) (Cohort 2 200 mg BID): (6.25%)
- Chronic kidney disease: # Events (Cohort 2 200 mg BID): 0
- Chronic kidney disease: Affected/At Risk (Cohort 2 200 mg BID): 0/16
- Chronic kidney disease: Affected/At Risk (%) (Cohort 2 200 mg BID): (0%)
- Conjunctival haemorrhage: # Events (Cohort 2 200 mg BID): 1
- Conjunctival haemorrhage: Affected/At Risk (Cohort 2 200 mg BID): 1/16
- Conjunctival haemorrhage: Affected/At Risk (%) (Cohort 2 200 mg BID): (6.25%)
- Conjunctivitis: # Events (Cohort 2 200 mg BID): 1
- Conjunctivitis: Affected/At Risk (Cohort 2 200 mg BID): 1/16
